Experimental data taken from patent publication US7037656B2, “Methods and compositions for identifying ligands for nuclear receptors” (priority 2000, dated 2006).

Tests used:
[1] = target: T1, Aa ΔA/B EcR + RXRα + GRIP1 (Aedes aegypti, UniProt P49880); test: Yeast 6x EcRE-lacZ β-galactosidase transactivation assay; assay type: cell-based, Aedes aegypti; human; settings: RH 5992 10 μM, 4 hours, DMSO control 0.544
T1 construct: ubiquitin (human, 76 aa) (N, cleaved yes); expressed in transfected cells
Method: The human RXR α (Genbank accession number X52773), mouse RXR β (Genbank accession number X66224) or mouse RXR γ (Genebank accession number X66225) subtypes were expressed in yeast-E. coli multicopy 2μ expression plasmids under regulation of CUP1 promoter with the LEU2 selective marker (1).
Briefly, yeast cells are cultured in 5 mL of YPD liquid medium overnight at 30° C. The cell culture was diluted 1:20 in YPD media and further grown until cell density reached an O.D of 0.6. at OD600. The cells were pelleted by centrifugation and washed with 10 mL of TE+0.1M lithium acetate. Cells are then resuspended in 10 mL TE+0.1M lithium acetate and incubated at 30° C. for 1 hour. Cells are collected and resuspended in 0.5 mL of TE+ 0.1M lithium acetate. […]
(§1) Using the transformation method described above, yeast were co-transformed with a reporter gene as shown in FIG. 2 and the expression vector encoding the full-length Aedes aegypti ecdysone receptor, Aa EcR (FIG. 7A) in the presence or absence of the Aa EcR heterodimer partner, Aa USP (a or b form, FIGS. 8A and 8B respectively). […] As the N-terminal portion of the AaEcR receptor is reported to play a role in ligand independent transactivation, an expression vector containing an N-terminal deletion in the Aa EcR was constructed (see FIG. 7B) and assessed in the β-galactosidase assays described above. […]

[2] = target: T2, Aa ΔA/B EcR + Cf ΔA/B USP + GRIP1 (Aedes aegypti, UniProt P49880); test: as above; assay type: cell-based, Aedes aegypti; Choristoneura fumiferana; settings: RH 5992 10 μM, 4 hours, DMSO control 0.250
T2 construct: ubiquitin (human, 76 aa) (N, cleaved yes); expressed in transfected cells
Method: Briefly, yeast cells are cultured in 5 mL of YPD liquid medium overnight at 30° C. The cell culture was diluted 1:20 in YPD media and further grown until cell density reached an O.D of 0.6. at OD600. The cells were pelleted by centrifugation and washed with 10 mL of TE+0.1M lithium acetate. Cells are then resuspended in 10 mL TE+0.1M lithium acetate and incubated at 30° C. for 1 hour. Cells are collected and resuspended in 0.5 mL of TE+ 0.1M lithium acetate. Aliquots of cells (50 μL), were incubated for 15 minutes at 30° C. with 1–2 μg plasmid DNA in the presence of 5 μg of denatured salmon sperm DNA as DNA carrier. In the case of co-transformation, the indicated plasmids were added simultaneously. […]
as §1

T1 sequence (P49880 with tags, fused parts or gaps): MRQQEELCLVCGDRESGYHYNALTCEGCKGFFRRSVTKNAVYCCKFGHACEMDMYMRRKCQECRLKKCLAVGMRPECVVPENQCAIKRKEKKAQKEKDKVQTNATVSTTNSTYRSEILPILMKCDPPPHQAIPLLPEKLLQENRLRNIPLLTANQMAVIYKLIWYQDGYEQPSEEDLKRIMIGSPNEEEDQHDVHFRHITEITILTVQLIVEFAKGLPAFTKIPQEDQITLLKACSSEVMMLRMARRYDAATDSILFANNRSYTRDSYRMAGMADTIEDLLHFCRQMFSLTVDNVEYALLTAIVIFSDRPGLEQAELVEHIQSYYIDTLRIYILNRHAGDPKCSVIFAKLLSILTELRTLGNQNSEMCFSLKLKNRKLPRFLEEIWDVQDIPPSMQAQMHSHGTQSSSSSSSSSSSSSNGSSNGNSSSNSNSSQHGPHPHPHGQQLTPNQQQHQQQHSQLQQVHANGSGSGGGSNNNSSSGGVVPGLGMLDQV
T1 sequence (P19793 whole entry partner): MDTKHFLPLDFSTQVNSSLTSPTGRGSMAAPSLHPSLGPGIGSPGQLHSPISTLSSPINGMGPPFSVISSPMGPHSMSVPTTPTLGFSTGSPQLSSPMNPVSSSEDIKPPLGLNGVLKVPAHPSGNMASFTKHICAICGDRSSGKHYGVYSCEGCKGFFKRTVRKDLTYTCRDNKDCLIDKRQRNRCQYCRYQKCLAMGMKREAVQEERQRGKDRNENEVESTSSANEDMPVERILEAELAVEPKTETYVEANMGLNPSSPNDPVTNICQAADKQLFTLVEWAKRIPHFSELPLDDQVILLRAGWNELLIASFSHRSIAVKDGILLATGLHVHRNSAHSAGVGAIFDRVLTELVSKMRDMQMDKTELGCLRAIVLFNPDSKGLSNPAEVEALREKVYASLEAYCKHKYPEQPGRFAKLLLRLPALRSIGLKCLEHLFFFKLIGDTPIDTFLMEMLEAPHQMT
T2 sequence (P49880 with tags, fused parts or gaps): as the sequence (P49880 with tags, fused parts or gaps) above
T2 sequence (O76202 with tags, fused parts or gaps partner): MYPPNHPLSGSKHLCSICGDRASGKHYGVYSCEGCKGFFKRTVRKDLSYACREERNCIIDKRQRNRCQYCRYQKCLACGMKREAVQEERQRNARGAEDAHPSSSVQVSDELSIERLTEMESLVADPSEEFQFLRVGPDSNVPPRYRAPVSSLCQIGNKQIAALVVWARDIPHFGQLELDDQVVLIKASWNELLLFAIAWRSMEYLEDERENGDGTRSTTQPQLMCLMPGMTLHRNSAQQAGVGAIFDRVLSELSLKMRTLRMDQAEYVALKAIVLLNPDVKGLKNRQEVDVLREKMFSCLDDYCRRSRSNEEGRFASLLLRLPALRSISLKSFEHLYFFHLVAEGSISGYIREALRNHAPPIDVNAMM

With `CCc1ccc(C(=O)NN(C(=O)c2cc(C)cc(C)c2)C(C)(C)C)cc1` [RH 5992, tebufenozide] the β-galactosidase activity [1] was 2.032 and the β-galactosidase activity [2] was 3.000.
